{"source": "paper PMC10100342", "about": "“Thiamyxins: Structure and Biosynthesis of Myxobacterial RNA‐Virus Inhibitors” (Angewandte Chemie (International Ed. in English), 2022)", "system": "DENV-R2A", "conditions": "ratio of IC50 values", "data": [{"smiles": "C=C1NC(=O)C2(C)CSC(=N2)c2csc(n2)C2(C)CSC(=N2)C(C(C)CC)NC(=O)C(C)NC(=O)C(=CC(C)C)COC(=O)c2csc(n2)C(C(C)C)N(C)C(=O)C(COC)NC1=O", "note": "(stereo not shown) [Thiamyxin B]", "values": [{"measurement": "IC50 against DENV-R2A lower compared to HCov-229E-luc", "value": "fourfold"}]}]}
